Reference: patent US20100105730A1 (H. Lundbeck A/S, priority 2007, published 2010)
Like-named read-outs stand apart in the source and are kept apart here.

Assays:
[1] = target: T1, human-homomeric 5-HT3A receptors (Homo sapiens, UniProt P46098); experiment: Electrophysiology in oocytes expressing human-homomeric 5-HT3A receptors; type: cell-based
T1 sequence (P46098 24-478): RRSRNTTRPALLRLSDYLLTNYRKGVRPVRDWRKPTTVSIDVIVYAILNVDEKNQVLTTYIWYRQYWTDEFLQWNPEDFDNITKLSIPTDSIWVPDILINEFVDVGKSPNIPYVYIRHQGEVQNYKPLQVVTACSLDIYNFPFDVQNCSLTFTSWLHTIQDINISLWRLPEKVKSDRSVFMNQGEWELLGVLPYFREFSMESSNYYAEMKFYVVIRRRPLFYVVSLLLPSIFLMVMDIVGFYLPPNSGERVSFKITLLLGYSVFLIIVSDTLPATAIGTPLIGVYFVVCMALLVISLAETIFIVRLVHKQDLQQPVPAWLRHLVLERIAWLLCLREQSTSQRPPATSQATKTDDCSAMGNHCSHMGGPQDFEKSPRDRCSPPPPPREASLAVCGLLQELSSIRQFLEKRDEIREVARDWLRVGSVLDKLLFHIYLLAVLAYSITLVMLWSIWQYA
Method: The experiments were carried out as follows. […] Oocytes avoid of the follicle layer were selected and incubated for 24 hours in Modified Barth's Saline buffer [88 mM NaCl, 1 mM KCl, 15 mM HEPES, 2.4 mM NaHCO3, 0.41 mM CaCl2, 0.82 mM MgSO4, 0.3 mM Ca(NO3)2] supplemented with 2 mM sodium pyruvate, 0.1 U/l penicillin and 0.1 μg/l streptomycin. Stage […] oocytes were identified and injected with 12-48 nl of nuclease free water containing 14-50 pg of cRNA coding for human 5-HT3A receptors receptors and incubated at 18° C. until they were used for electrophysiological recordings (1-7 days after injection). […] Cells were impaled with agar plugged 0.5-1 MΩ electrodes containing 3 M KCl and voltage clamped at −90 mV by a GeneClamp 500B amplifier. The oocytes were continuously perfused with Ringer buffer and the drugs were applied in the perfusate.

[2] = target: T2, NET (Rattus norvegicus, UniProt Q63380); experiment: Norepinephrine (NE) reuptake inhibition, rat cortical synaptosomes; type: biochemical; conditions: rat cortical synaptosome preparation; read-out: IC50 at NET ([3H]NE uptake)
T2 construct: rat cortical synaptosome preparation; from tissue; host or cells: rat cortical synaptosomes
T2 sequence (Q63380 1-617): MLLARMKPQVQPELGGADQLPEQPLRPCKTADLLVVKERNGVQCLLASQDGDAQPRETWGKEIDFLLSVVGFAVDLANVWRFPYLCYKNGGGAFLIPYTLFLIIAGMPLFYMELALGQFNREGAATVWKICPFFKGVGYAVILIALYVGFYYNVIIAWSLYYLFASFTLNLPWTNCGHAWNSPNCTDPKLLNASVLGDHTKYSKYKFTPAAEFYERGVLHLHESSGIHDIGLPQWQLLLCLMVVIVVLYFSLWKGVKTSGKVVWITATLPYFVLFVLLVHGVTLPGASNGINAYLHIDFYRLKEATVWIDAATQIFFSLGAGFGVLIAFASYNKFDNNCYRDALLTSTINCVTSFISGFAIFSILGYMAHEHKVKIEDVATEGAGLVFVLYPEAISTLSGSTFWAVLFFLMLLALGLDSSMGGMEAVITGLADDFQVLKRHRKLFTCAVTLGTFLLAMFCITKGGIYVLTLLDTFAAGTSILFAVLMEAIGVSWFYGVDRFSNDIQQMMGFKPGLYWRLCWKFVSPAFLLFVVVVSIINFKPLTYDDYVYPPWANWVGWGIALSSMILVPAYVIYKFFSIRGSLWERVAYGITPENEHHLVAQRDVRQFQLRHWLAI
Method: (§1) Non-specific uptake was determined in the presence of 10 μM talsupram or citalopram and the total uptake was determined in the presence of buffer. Aliquots were incubated for 15 minutes at 37° C. […] Filters were washed and counted in a Wallac MicroBeta counter.

[3] = target: T3, 5-HT2A receptors (Homo sapiens, UniProt P28223); experiment: 5-HT2A receptor affinity (MDL Pharmaservices catalogue number 271650); type: binding; parameters: purchased MDL Pharmaservices 271650
T3 sequence (P28223 whole entry): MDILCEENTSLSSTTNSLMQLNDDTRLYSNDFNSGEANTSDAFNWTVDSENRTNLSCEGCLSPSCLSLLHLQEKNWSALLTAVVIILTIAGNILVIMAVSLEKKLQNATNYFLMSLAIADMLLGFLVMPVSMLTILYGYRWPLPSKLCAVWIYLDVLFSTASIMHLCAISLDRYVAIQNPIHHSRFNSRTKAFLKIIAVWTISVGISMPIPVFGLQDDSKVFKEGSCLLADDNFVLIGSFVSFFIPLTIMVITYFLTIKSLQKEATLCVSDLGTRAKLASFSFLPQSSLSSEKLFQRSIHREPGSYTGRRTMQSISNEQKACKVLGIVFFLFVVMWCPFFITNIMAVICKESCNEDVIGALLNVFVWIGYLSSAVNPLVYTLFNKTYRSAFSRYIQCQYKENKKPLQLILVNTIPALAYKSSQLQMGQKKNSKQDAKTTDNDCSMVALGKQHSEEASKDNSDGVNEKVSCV

[4] = target: T3, 5-HT2A receptors; experiment: Antagonism of 5-HT evoked Ca2+ release in CHO cells expressing human 5-HT2A receptors (FLIPR); type: cell-based; parameters: expressed in transfected cells; host or cells: CHO cells
Method: The experiment was carried out as follows. 2 or 3 days before the experiment CHO cells expressing 250 fmol/mg human 5-HT2A receptors are plated at a density sufficient to yield a mono-confluent layer on the day of the experiment. The cells are dye loaded (Ca^2+-kit from Molecular Devices) for 60 minutes at 37° C. in a 5% CO2 incubator at 95% humidity. Basal fluorescence was monitored in a fluorometric imaging plate reader or FLIPR^384 from Molecular Devices (Sunnyvale, Calif.) with an excitation wavelength of 488 nm and an emission range of 500 to 560 nm. […] The variation in basal fluorescence should be less than 10%. […] IC; values were calculated using Cheng-Prusoff equation.

[5] = target: T3, 5-HT2A receptors; experiment: Binding to human 5-HT2A receptors expressed in mammalian cells; parameters: expressed in transfected cells; host or cells: CHO cells; conditions: mammalian cells expressing human 5-HT2A receptors
[6] = target: T4, α1A receptor (Homo sapiens, UniProt P35348); experiment: α1A receptor affinity, [3H]-Prazosin binding to membranes; conditions: Ki by Cheng Prusoff, read-out: Ki, affinity for α1A receptors
T4 sequence (P35348 1-466): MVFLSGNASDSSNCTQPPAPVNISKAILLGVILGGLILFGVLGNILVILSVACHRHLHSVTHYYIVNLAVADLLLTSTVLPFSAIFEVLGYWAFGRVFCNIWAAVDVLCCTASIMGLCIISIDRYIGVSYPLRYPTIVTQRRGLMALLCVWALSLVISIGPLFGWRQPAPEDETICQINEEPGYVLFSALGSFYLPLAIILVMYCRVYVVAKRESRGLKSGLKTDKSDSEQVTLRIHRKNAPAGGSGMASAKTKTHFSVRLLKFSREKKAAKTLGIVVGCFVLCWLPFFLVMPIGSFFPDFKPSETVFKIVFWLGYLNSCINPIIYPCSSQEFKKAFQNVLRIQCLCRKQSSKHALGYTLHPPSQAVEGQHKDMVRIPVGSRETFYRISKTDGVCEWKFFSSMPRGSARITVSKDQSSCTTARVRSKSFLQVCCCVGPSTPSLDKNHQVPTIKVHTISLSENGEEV
Method: On the day of the experiments membranes (see below for description of membrane preparation) are thawed and homogenized in buffer using an ultra turrax and diluted to the desired concentration (5 μg/well˜5/900 μl, store on ice until use). The experiment is initiated by mixing of 50 μl test compound, 50 μl [^3H]-Prazosin and […], and the mixture is incubated for 20 minutes at 25° C. Non-specific binding is determined in the presence of 10 μM WB-4101 and the total binding is determined in the presence of buffer. After the incubation, bound ligand is separated from unbound by filtration through Unifilter GF/B, presoaked in 0.1% PEI for 30 minutes, using a Tomtec Cell Harvester program (D4.2..4). 96 well. Filters are washed 3 times with 1 ml ice-cold buffer, dried at 50° C. and 35 μl scintillation liquid/well is added to the filters. Bound radioactivity is counted in a Wallac OY 1450 MicroBeta. […] Concentrations of compound covering 2 decades were used to calculate the IC50 value.

[7] = test system: formalin model of neuropathic pain; experiment: Formalin model of neuropathic pain in mice; type: in vivo, C57/B6 mice
Method: The irritation caused by the formalin injection elicits a characteristic biphasic behavioural response, as quantified by the amount of time spent licking the injured paw. The first phase (—O—10 minutes) represents direct chemical irritation and nociception, whereas the second (−20-30 minutes) is thought to represent pain of neuropathic origin. The two phases are separated by a quiescent period in which behaviour returns to normal. Measuring the amount of time spent licking the injured paw in the two phases assesses the effectiveness of test compounds to reduce the painful stimuli. Eight C57/B6 mice (ca. 25 g) were tested per group. […] The amount of compound administered is calculated as the free base.

[8] = test system: extracellular dopamine (DA) levels in the rat frontal cortex; experiment: Microdialysis, extracellular dopamine levels in rat frontal cortex; type: in vivo; conditions: single injection
Method: Male Sprague-Dawley rats, initially weighing 275-300 g, were used. The animals were housed under a 12-hr light/dark cycle under controlled conditions for regular in-door temperature (21±2° C.) and humidity (55±5%) with food and tap water available ad libitum. For the three-day treatment experiments osmotic minipumps (Alzet, 2ML1) were used. The pumps were filled under aseptic conditions and implanted subcutaneously under sevoflurance anaesthesia. The experiments were carried out with the minipumps on board. Blood samples for measuring plasma levels of the test compound after 3 days of treatment were collected at the end of the experiments. Animals were anaesthetised with hypnorm/dormicum (2 ml/kg) and intracerebral guide cannulas (CMA/12) were stereotaxically implanted into the hippocampus, positioning the dialysis probe tip in the ventral hippocampus (co-ordinates: 5.6 mm […] to bregma, lateral—5.0 mm, 7.0 mm ventral to dura or in the frontal cortex (co-ordinates: 3.2 mm anterior to bregma; lateral, 3.0 mm; 4.0 mm ventral to dura). Anchor screws and acrylic cement were sued for fixation of the guide cannulas. The body temperature of the animals was monitored by rectal probe and maintained at 37° C. The rats were allowed to recover from surgery for 2 days, housed singly in cages. […]

[9] = target: T5, SERT (Rattus norvegicus, UniProt P31652); experiment: Serotonin (5-HT) reuptake inhibition, rat cortical synaptosomes; type: biochemical; conditions: rat cortical synaptosome preparation
T5 construct: rat cortical synaptosome preparation; from tissue; host or cells: rat cortical synaptosomes
T5 sequence (P31652 whole entry): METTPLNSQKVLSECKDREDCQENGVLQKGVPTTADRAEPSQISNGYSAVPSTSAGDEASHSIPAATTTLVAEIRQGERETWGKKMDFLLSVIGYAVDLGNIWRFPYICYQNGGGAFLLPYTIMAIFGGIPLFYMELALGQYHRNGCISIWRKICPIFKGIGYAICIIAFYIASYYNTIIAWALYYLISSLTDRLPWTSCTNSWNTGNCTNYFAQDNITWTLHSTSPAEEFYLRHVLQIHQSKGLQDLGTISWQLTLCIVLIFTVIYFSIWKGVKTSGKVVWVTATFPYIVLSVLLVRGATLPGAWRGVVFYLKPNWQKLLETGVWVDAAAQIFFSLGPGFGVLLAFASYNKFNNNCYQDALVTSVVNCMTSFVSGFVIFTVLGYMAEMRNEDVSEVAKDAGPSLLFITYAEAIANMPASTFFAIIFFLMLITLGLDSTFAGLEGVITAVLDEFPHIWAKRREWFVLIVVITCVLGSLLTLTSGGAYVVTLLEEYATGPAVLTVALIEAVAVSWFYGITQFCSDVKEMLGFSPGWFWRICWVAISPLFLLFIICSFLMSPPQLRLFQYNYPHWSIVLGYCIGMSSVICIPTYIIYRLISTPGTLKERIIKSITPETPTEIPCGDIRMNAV
Method: as §1

[10] = test system: extracellular levels of acetylcholine in the prefrontal cortex and ventral hippocampus; experiment: Microdialysis, extracellular acetylcholine levels in freely-moving rats; type: in vivo, rat; conditions: FIGS. 1a and 1b
Method: Male Sprague-Dawley rats, initially weighing 275-300 g, were used. The animals were housed under a 12-hr light/dark cycle under controlled conditions for regular in-door temperature (21±2° C.) and humidity (55±5%) with food and tap water available ad libitum.
Rats were anaesthetised with hypnorm/dormicum (2 ml/kg) and intracerebral guide cannulas (CMA/12) were stereotaxically implanted into the hippocampus, aiming to position the dialysis probe tip in the ventral hippocampus (co-ordinates: 5.6 mm posterior to bregma, lateral—5.0 mm, 7.0 mm ventral to dura or in the frontal cortex (co-ordinates: 3.2 mm anterior to bregma; lateral, 0.8 mm; 4.0 mm ventral to dura). Anchor screws and acrylic cement were used for fixation of the guide cannulas. The body temperature of the animals was monitored by rectal probe and maintained at 37° C. The rats were allowed to recover from surgery for 2 days, housed singly in cages. […]
Concentration of acetylcholine (ACh) in the dialysates was analysed by means of HPLC with electrochemical detection using a mobile phase consisting of 100 mM disodium hydrogenphosphate, 2.0 mM octane sulfonic acid, 0.5 mM tetramethylammonium chloride and 0.005% MB (ESA), pH 8.0. […] The latter was detected electrochemical by using a platinum electrode (Analytical cell: ESA, model 5040). […]

For `Cc1ccc(Sc2ccccc2C2CCNCC2)cc1` [compound I, 4-[2-(4-methylphenylsulfanyl)phenyl]piperidine], the Kb ([1]; 0.1 nM-100 nM, read-out: Kb, antagonism in low concentrations) was roughly 2 nM, the EC50 ([1]; 100-100000 nM, read-out: EC50, agonistic properties in higher concentrations) was roughly 2600 nM and the “maximal current, % of the maximal current elicited by 5-HT itself” value ([1]; agonism at higher concentrations (100-100000 nM)) was 70-80%. It also gave an IC50 ([1]; read-out: IC50, antagonism in low concentrations) of roughly 10 nM, an IC50 [2] of 23 nM and a Ki [3] of 54 nM. It also gave a Kb ([4]; Kb, antagonism of 5-HT evoked release of Ca2+ from intracellular stores, functional assay) of 67 nM, a Kb ([4]; schild analysis, read-out: Kb, schild analysis (competitive antagonism)) of 100 nM and a Ki [5] of less than 100 nM. The Ki [6] was 34 nM, the “time spent licking the injured paw, 0-5 minutes” value ([7]; 1.0 mg/kg, first phase) was 37 s and the “time spent licking the injured paw, 20-30 minutes” value ([7]; 1.0 mg/kg, second phase) was 43 s. The “time spent licking the injured paw, 0-5 minutes” value ([7]; 10 mg/kg, first phase) was 37 s, the “effect in the first phase (direct chemical irritation and nociception)” value ([7]; first phase, in words) was “little effect” and the “time spent licking paws in the second phase” value ([7]; second phase, in words) was “clear and dose dependent decrease”. For the same molecule, the “enhancement of DA levels above baseline levels” value ([8]; 8.9 mg/kg s.c.) was “approximately 100%”, the “enhancement of DA levels above baseline levels” value ([8]; 18 mg/kg s.c.) was roughly 150% and the IC50 [9] was 8 nM. For the same molecule, the “extra-cellular acetylcholine levels in the brain” value [10] was “dose dependent increase”.
